Values quoted from earlier work as cited in PMC9729727, “The effect of food on the pharmacokinetics of WXFL10203614, a potential selective JAK1 inhibitor, in healthy Chinese subjects” (Frontiers in Pharmacology, 2022).
Read-outs that look alike come from different tables or passages of the source.

Conditions: for Effect of food on AUC / Effect of food on Cmax: ref Shi et al., 2011, Mohamed et al., Anderson et al.; for Effect of the fed state on Cmax: ref Lamba et al., 2016, Shibata et al., 2021
[1] = 3 mg immediate-release capsules, high-fat meal vs fasted, ref Mohamed et al., 2017

| Compound | Effect of food on AUC (2017, 2019) | Effect of food on Cmax (2017, 2019) | Effect of the fed state on Cmax | other results |
| --- | --- | --- | --- | --- |
| N#CC[C@H](C1CCCC1)n1cc(-c2ncnc3[nH]ccc23)cn1 [INCB018424] | little effect | partly reduced |  |  |
| O=C(Nc1nc2cccc(-c3ccc(CN4CCS(=O)(=O)CC4)cc3)n2n1)C1CC1 [filgotinib] | little effect | partly reduced |  | Effect of meals on systemic exposure (high- and low-fat meals, ref Anderson et al., 2019): little effect; Decrease of Cmax by meal (high-fat meal, ref Anderson et al., 2019): 20%; Decrease of Cmax by meal (low-fat meal, ref Anderson et al., 2019): 11% |
| NC(=O)c1cnc2[nH]ccc2c1N[C@@H]1[C@@H]2CC3C[C@H]1C[C@@](O)(C3)C2 [peficitinib] |  |  | elevated |  |
| C[C@@H]1CCN(C(=O)CC#N)C[C@@H]1N(C)c1ncnc2[nH]ccc12 [tofacitinib] |  |  | elevated |  |
| CC[C@@H]1CN(C(=O)NCC(F)(F)F)C[C@@H]1c1cnc2cnc3[nH]ccc3n12 [upadacitinib] | little effect | partly reduced |  | Decrease of Cmax after a high-fat meal [1]: 23%; Effect of a high-fat meal on AUC [1]: not impacted |
